Experimental data as given in patent US12629374B2, “Antimalarial agents” (Merck Sharp & Dohme LLC, priority 2020, dated 2026).

test system: ring stage parasites; test: Parasite growth potency assay, 72 hours, LDH readout; type: cell-based; conditions: 72 h
Summary of the method: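 Parasite growth was quantified by LDH assay after a −80 °C freeze-thaw. Before that, compound was incubated for 72 h at 37 °C under humidified gas with ring-stage cultures adjusted to 0.7% parasitemia and 2% haematocrit in serum- and albumax-supplemented RPMI-Hepes.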

Going from `CCC1(CC)CC(=O)N([C@H](c2cccc(OS(=O)(=O)F)c2)c2cccc(C(=O)N[C@H]3CCOc4ccccc43)c2)C(=N)N1` [Example 149A, [1-[[3-[[(4S)-chroman-4-yl]carbamoyl]phenyl]-(3-fluorosulfonyloxyphenyl)methyl]-4,4-diethyl-6-oxo-hexahydropyrimidin-2-ylidene]ammonium; 2,2,2-trifluoroacetate] to `CCC1(CC)CC(=O)N([C@@H](c2cccc(OS(=O)(=O)F)c2)c2cccc(C(=O)N[C@H]3CCOc4ccccc43)c2)C(=N)N1` [Example 149B, [1-[[3-[[(4S)-chroman-4-yl]carbamoyl]phenyl]-(3-fluorosulfonyloxyphenyl)methyl]-4,4-diethyl-6-oxo-hexahydropyrimidin-2-ylidene]ammonium; 2,2,2-trifluoroacetate], the EC50 rises from 1.5 nM to 57.6 nM (38-fold).

same assay, conditions: 72 h, parasite growth measured by LDH assay after 72 hours at 37° C.; 0.7% rings, 2% haematocrit; read-out: EC50

`CCC1(CC)CC(=O)N([C@H](CCOC)c2cncc(C(=O)N[C@@H]3c4ccccc4C[C@H]3O)c2)C(=N)N1` [Example 125, [4,4-diethyl-1-[1-[5-[[(1R,2R)-2-hydroxyindan-1-yl]carbamoyl]pyridin-1-ium-3-yl]-3-methoxy-propyl]-6-oxo-hexahydropyrimidin-2-ylidene]ammonium; 2,2,2-trifluoroacetate] and `CCC1(CC)CC(=O)N([C@H](CCOC)c2cc(F)cc(C(=O)N[C@@H]3c4ccccc4C[C@H]3O)c2)C(=N)N1` [Example 138, [4,4-diethyl-1-[1-[3-fluoro-5-[[(1R,2R)-2-hydroxyindan-1-yl]carbamoyl]phenyl]-3-methoxy-propyl]-6-oxo-hexahydropyrimidin-2-ylidene]ammonium; 2,2,2-trifluoroacetate] are the same in EC50: 2.7 nM for the first, 2.7 nM for the second.

Compared with `CCC[C@H](c1cccc(C(=O)N[C@H]2c3ccccc3OCC2O)c1)N1C(=N)NC(CC)(CC)CC1=O` (stereo partly drawn) [Example 127A, 3-[(1R)-1-(4,4-diethyl-2-imino-6-oxo-hexahydropyrimidin-1-yl)butyl]-N-(3-hydroxychroman-4-yl)benzamide], `CCC[C@H](c1cccc(C(=O)N[C@@H]2c3ccccc3OCC2O)c1)N1C(=N)NC(CC)(CC)CC1=O` (stereo partly drawn) [Example 127D, 3-[(1R)-1-(4,4-diethyl-2-imino-6-oxo-hexahydropyrimidin-1-yl)butyl]-N-(3-hydroxychroman-4-yl)benzamide] is 81-fold lower in EC50: 97.4 nM for the first, 1.2 nM for the second. The second is the more potent here.

Compared with `COCC[C@H](c1cncc(C(=O)N[C@@H]2c3ccccc3C[C@H]2O)c1)N1C(=N)N[C@](C)(C(C)C)CC1=O` [Example 130, [(4S)-1-[1-[5-[[(1R,2R)-2-hydroxyindan-1-yl]carbamoyl]pyridin-1-ium-3-yl]-3-methoxy-propyl]-4-isopropyl-4-methyl-6-oxo-hexahydropyrimidin-2-ylidene]ammonium; 2,2,2-trifluoroacetate], `CCC1(CC)CC(=O)N([C@H](COCCOC)c2cccc(C(=O)N[C@@H]3c4ccccc4C[C@H]3O)c2)C(=N)N1` [Example 140, [4,4-diethyl-1-[(1S)-1-[3-[[(1R,2R)-2-hydroxyindan-1-yl]carbamoyl]phenyl]-2-(2-methoxyethoxy)ethyl]-6-oxo-hexahydropyrimidin-2-ylidene]ammonium; 2,2,2-trifluoroacetate] is 5.9-fold lower in EC50: 18.8 nM for the first, 3.2 nM for the second. The second is the more potent here.

Going from `CCC1(CC)CC(=O)N([C@@H](CCOC)c2cccc(C(=O)N[C@H]3C[C@H](C(F)(F)F)Oc4ccccc43)c2)C(=N)N1` [Example 132A, [[(2R,4S)-2-(trifluoromethyl)chroman-4-yl]carbamoyl]phenyl]propyl]-6-oxo-hexahydropyrimidin-2-ylidene]ammonium; 2,2,2-trifluoroacetate] to `CCC1(CC)CC(=O)N([C@H](CCOC)c2cccc(C(=O)N[C@H]3C[C@H](C(F)(F)F)Oc4ccccc43)c2)C(=N)N1` [Example 132B, [4,4-diethyl-1-[3-methoxy-1-[3-[[(2R,4S)-2-(trifluoromethyl)chroman-4-yl]carbamoyl]phenyl]propyl]-6-oxo-hexahydropyrimidin-2-ylidene]ammonium; 2,2,2-trifluoroacetate], the EC50 falls from 59 nM to 0.9 nM (66-fold). The second is the more potent here.

Compared with `CCC1(CC)CC(=O)N(Cc2cc(C(=O)N[C@H]3C[C@H](C(F)(F)F)Oc4ccccc43)ccn2)C(=N)N1` [Example 134, [4,4-diethyl-6-oxo-1-[[4-[[(2R,4S)-2-(trifluoromethyl)chroman-4-yl]carbamoyl]pyridin-1-ium-2-yl]methyl]hexahydropyrimidin-2-ylidene]ammonium; 2,2,2-trifluoroacetate], `CCC1(CC)CC(=O)N([C@H](CCN2CCOCC2)c2cccc(C(=O)N[C@H]3C[C@H](C(F)(F)F)Oc4ccccc43)c2)C(=N)N1` [Example 136, [4,4-diethyl-1-[3-morpholin-4-ium-4-yl-1-[3-[[(2R,4S)-2-(trifluoromethyl)chroman-4-yl]carbamoyl]phenyl]propyl]-6-oxo-hexahydropyrimidin-2-ylidene]ammonium; 2,2,2-trifluoroacetate] is 6.6-fold lower in EC50: 8.6 nM for the first, 1.3 nM for the second.

`CCC1(CC)CC(=O)N([C@H](CCN2CCOCC2)c2cccc(C(=O)N[C@H]3CC(C)(C)Oc4ccccc43)c2)C(=N)N1` [Example 135, [1-[1-[3-[[(4S)-2,2-dimethylchroman-4-yl]carbamoyl]phenyl]-3-morpholin-4-ium-4-yl-propyl]-4,4-diethyl-6-oxo-hexahydropyrimidin-2-ylidene]ammonium; 2,2,2-trifluoroacetate] and `CCC1(CC)CC(=O)N([C@H](CC(C)(C)O)c2cccc(C(=O)N[C@H]3CC(C)(C)Oc4ccccc43)c2)C(=N)N1` [Example 145, 3-[1-(4,4-diethyl-2-imino-6-oxo-hexahydropyrimidin-1-yl)-3-hydroxy-3-methyl-butyl]-N-[(4S)-2,2-dimethylchroman-4-yl]benzamide] are within 1.5-fold of each other in EC50: 1 nM for the first, 0.7 nM for the second.

First: CCC1(CC)CC(=O)N([C@H](COCCOC)c2cccc(C(=O)N[C@@H]3c4ccccc4OC(C)(C)[C@H]3O)c2)C(=N)N1 [Example 139, [4,4-diethyl-1-[(1S)-1-[3-[[(3S,4R)-3-hydroxy-2,2-dimethyl-chroman-4-yl]carbamoyl]phenyl]-2-(2-methoxyethoxy)ethyl]-6-oxo-hexahydropyrimidin-2-ylidene]ammonium; 2,2,2-trifluoroacetate]
Second: CCC1(CC)CC(=O)N([C@H](COCCOC)c2cccc(C(=O)NC3c4ccccc4CC3(C)O)c2)C(=N)N1 (stereo partly drawn) [Example 146A, 3-[(1S)-1-(4,4-diethyl-2-imino-6-oxo-hexahydropyrimidin-1-yl)-2-(2-methoxyethoxy)ethyl]-N-(2-hydroxy-2-methyl-indan-1-yl)benzamide]
The EC50 of the first is 3.5-fold lower: 1.5 nM for the first, 5.3 nM for the second. The first is the more potent here.

With `CCC1(CC)CC(=O)N(Cc2cc(F)cc(C(=O)N[C@@H]3c4ccccc4OC(C)(C)[C@H]3O)c2)C(=N)N1` [Example 141, [4,4-diethyl-1-[[3-fluoro-5-[[(3S,4R)-3-hydroxy-2,2-dimethyl-chroman-4-yl]carbamoyl]phenyl]methyl]-6-oxo-hexahydropyrimidin-2-ylidene]ammonium; 2,2,2-trifluoroacetate] the EC50 was 0.8 nM.

same assay, conditions: parasite growth measured by LDH assay after 72 hours at 37° C.; 0.7% rings, 2% haematocrit; read-out: EC50

First: CCC[C@H](c1cccc(C(=O)N[C@H]2c3ccccc3OCC2O)c1)N1C(=N)NC(CC)(CC)CC1=O (stereo partly drawn) [Example 127C, 3-[(1R)-1-(4,4-diethyl-2-imino-6-oxo-hexahydropyrimidin-1-yl)butyl]-N-(3-hydroxychroman-4-yl)benzamide]
Second: CCC1(CC)CC(=O)N([C@H](COCCOC)c2cccc(C(=O)NC3c4ccccc4CC3(C)O)c2)C(=N)N1 (stereo partly drawn) [Example 146B, 3-[(1S)-1-(4,4-diethyl-2-imino-6-oxo-hexahydropyrimidin-1-yl)-2-(2-methoxyethoxy)ethyl]-N-(2-hydroxy-2-methyl-indan-1-yl)benzamide]
The EC50 of the first is 8.4-fold higher: 53.8 nM for the first, 6.4 nM for the second. The second is the more potent here.
